Several values for one entry are separate records, joined by “and”; a condition that tells them apart may be missing. Equal entries are not always repeated. Entries after “also recorded” stand apart in the source; their conditions may differ. Where two headings read alike, the source gives them in different places.
Legend:
serum Pi = assay: Post hoc hyperphosphatemia assessment with phosphate-binding therapy; assay type: in vivo, human
[1] = for RAUC0–last / RCmax: ratio
advanced solid tumors = assay: Objective tumor response; assay type: in vivo, human
clinical = conditions: human, plasma, oral; for AUC(0-inf): AUC0–inf; for AUC(0-t): AUC0–last
[2] = tested on: cancer cell lines harboring various FGFR gene abnormalities; conditions: cited from earlier work
[3] = tested on: patients with advanced solid tumors; conditions: global phase I study, 64% Caucasian patients; cited from earlier work
[4] = 40 QD patients treated with phosphate-binding therapy
[5] = Week 3 (day 21), QD 20 mg, n = 2, mean
[6] = Week 3, TIW 36 mg, n = 3, mean (standard deviation)
[7] = Week 3, TIW 56 mg, n = 6, mean (standard deviation)
[8] = Week 3, TIW 80 mg, n = 5, mean (standard deviation)
[9] = Week 3, TIW 120 mg, n = 3, mean (standard deviation)
[10] = Week 3, TIW 160 mg, n = 4, mean (standard deviation)
[11] = FGFR‐abnormal patients with GC, All patients (n = 21)
[12] = FGFR‐abnormal patients with GC, FGRF2 CN <10 (n = 10)
[13] = FGFR‐abnormal patients with GC, FGRF2 CN ≥10 (n = 11)
[14] = Futibatinib regimen QD (n = 43)
[15] = Futibatinib regimen TIW (n = 39)
[16] = With FGF/FGFR abnormalities (n = 52)
[17] = Without FGF/FGFR abnormalities or unknown (n = 30)
[18] = 16 mg, Day 1, QD 16 mg, n = 3, mean (standard deviation)
[19] = 16 mg, Week 3, TIW 16 mg, n = 1
[20] = 20 mg, Day 1, QD 20 mg, n = 7, mean (standard deviation)
[21] = 20 mg, Week 3 (day 21), QD 20 mg, n = 2, mean
[22] = 24 mg, Week 3, TIW 24 mg, n = 1

C=CC(=O)N1CC[C@H](n2nc(C#Cc3cc(OC)cc(OC)c3)c3c(N)ncnc32)C1 [futibatinib]
Futibatinib dose interruption (serum Pi; [4]): 30% | Futibatinib dose reduction (serum Pi; [4]): 12.5% | Safety concerns regardless of presence or absence of phosphate-binding therapy (serum Pi; futibatinib QD): No safety concerns were identified | Patients achieving the target serum Pi level (serum Pi; futibatinib dose reduction after starting phosphate-binding therapy (15 patients)): 86.7% | Hyperphosphatemia events leading to discontinuation of futibatinib (serum Pi; in vivo): not leading to futibatinib discontinuation; also recorded: none of the hyperphosphatemia events led to discontinuation of futibatinib | Patients achieving the target serum Pi level (serum Pi; no dose reduction after starting phosphate-binding therapy (10/20)): 50.0% | Cmax ([1]; Day 1, TIW 80 mg, n = 6, mean (standard deviation)): 866 (366) [42.3] ng/ml | t1/2 ([1]; Day 1, TIW 120 mg, n = 3, mean (standard deviation)): 6.64 (1.08) [16.3] ^b h | Dose proportionality of Cmax and AUC ([1]; TIW regimens, single and multiple administrations): dose‐proportional changes in Cmax and AUC0–last | Cmax [1, 5]: 173 (NC) [NC] ng/ml | RAUC0–last [1, 5]: 1.29 (NC) [NC] | RCmax [1, 5]: 0.91 (NC) [NC] | Cmax ([1]; Week 3, TIW 8 mg, n = 1): 167 (NC) [NC] ng/ml | t1/2 ([1]; Week 3, TIW 8 mg, n = 1): 1.74 (NC) [NC] h | RAUC0–last ([1]; Week 3, TIW 8 mg, n = 1): 1.69 (NC) [NC] | RCmax ([1]; Week 3, TIW 8 mg, n = 1): 1.24 (NC) [NC] | t1/2 ([1]; Week 3, TIW 16 mg, n = 1): 5.27 (NC) [NC] h | RAUC0–last ([1]; Week 3, TIW 16 mg, n = 1): 1.39 (NC) [NC] | RCmax ([1]; Week 3, TIW 16 mg, n = 1): 0.96 (NC) [NC] | RAUC0–last ([1]; Week 3, TIW 24 mg, n = 1): 0.80 (NC) [NC] | RCmax ([1]; Week 3, TIW 24 mg, n = 1): 0.72 (NC) [NC] | RAUC0–last [1, 6]: 1.51 (0.47) [30.9] | RCmax [1, 6]: 0.88 (0.44) [49.7] | RAUC0–last [1, 7]: 1.36 (0.44) [32.5] | RCmax [1, 7]: 1.25 (0.36) [28.8] | AUC0–last [1, 8]: 7394 (3731) [50.5] ng·h/ml | RAUC0–last [1, 8]: 1.25 (0.25) [20.0] | RCmax [1, 8]: 0.96 (0.09) [9.1] | RAUC0–last [1, 9]: 1.27 (0.29) [23.1] | RCmax [1, 9]: 1.02 (0.34) [33.2] | RAUC0–last [1, 10]: 1.54 (0.64) [41.6] | RCmax [1, 10]: 1.05 (0.82) [78.2] | Renal excretion of unchanged futibatinib ([1]; in vivo): negligible | Best response CR (advanced solid tumors; [11]): 0 (0.0) n (%) | Best response NE (advanced solid tumors; [11]): 2 (9.5) n (%) | Best response PD (advanced solid tumors; [11]): 12 (57.1) n (%) | Best response PR (advanced solid tumors; [11]): 4 (19.0) n (%) | Best response SD (advanced solid tumors; [11]): 3 (14.3) n (%) | DCR (95% CI) (advanced solid tumors; [11]): 33.3 (14.6–57.0) % | ORR (95% CI) (advanced solid tumors; [11]): 19.0 (5.4–41.9) % | Best response CR (advanced solid tumors; [12]): 0 (0.0) n (%) | Best response NE (advanced solid tumors; [12]): 2 (20.0) n (%) | Best response PD (advanced solid tumors; [12]): 7 (70.0) n (%) | Best response PR (advanced solid tumors; [12]): 0 (0.0) n (%) | Best response SD (advanced solid tumors; [12]): 1 (10.0) n (%) | DCR (95% CI) (advanced solid tumors; [12]): 10.0 (0.3–44.5) % | ORR (95% CI) (advanced solid tumors; [12]): 0 (0–30.8) % | Best response CR (advanced solid tumors; [13]): 0 (0.0) n (%) | Best response NE (advanced solid tumors; [13]): 0 (0.0) n (%) | Best response PD (advanced solid tumors; [13]): 5 (45.5) n (%) | Best response PR (advanced solid tumors; [13]): 4 (36.4) n (%) | Best response SD (advanced solid tumors; [13]): 2 (18.2) n (%) | DCR (95% CI) (advanced solid tumors; [13]): 54.5 (23.4–83.3) % | ORR (95% CI) (advanced solid tumors; [13]): 36.4 (10.9–69.2) % | Best response CR (advanced solid tumors; [14]): 0 (0.0) n (%) | Best response NE (advanced solid tumors; [14]): 4 (9.3) n (%) | Best response PD (advanced solid tumors; [14]): 23 (53.5) n (%) | Best response PR (advanced solid tumors; [14]): 5 (11.6) n (%) | Best response SD (advanced solid tumors; [14]): 11 (25.6) n (%) | DCR (95% CI) (advanced solid tumors; [14]): 37.2 (23.0–53.3) % | ORR (95% CI) (advanced solid tumors; [14]): 11.6 (3.9–25.1) % | Best response CR (advanced solid tumors; [15]): 0 (0.0) n (%) | Best response NE (advanced solid tumors; [15]): 5 (12.8) n (%) | Best response PD (advanced solid tumors; [15]): 23 (59.0) n (%) | Best response PR (advanced solid tumors; [15]): 1 (2.6) n (%) | Best response SD (advanced solid tumors; [15]): 10 (25.6) n (%) | DCR (95% CI) (advanced solid tumors; [15]): 28.2 (15.0–44.9) % | ORR (95% CI) (advanced solid tumors; [15]): 2.6 (0.1–13.5) % | Patients with best response of confirmed PR (advanced solid tumors; GC patients with FGFR2 CN <10): 0/10 | Patients with best response of confirmed PR (advanced solid tumors; GC patients with FGFR2 CN ≥10): 4/11 | Best response CR (advanced solid tumors; Total (n = 82)): 0 (0.0) n (%) | Best response NE (advanced solid tumors; Total (n = 82)): 9 (11.0) n (%) | Best response PD (advanced solid tumors; Total (n = 82)): 46 (56.1) n (%) | Best response SD (advanced solid tumors; Total (n = 82)): 21 n (%) and 21 (25.6) n (%) | DCR (95% CI) (advanced solid tumors; Total (n = 82)): 32.9 (22.9–44.2) % | ORR (95% CI) (advanced solid tumors; Total (n = 82)): 7.3 (2.7–15.2) % | Best response CR (advanced solid tumors; [16]): 0 (0.0) n (%) | Best response NE (advanced solid tumors; [16]): 6 (11.5) n (%) | Best response PD (advanced solid tumors; [16]): 27 (51.9) n (%) | Best response PR (advanced solid tumors; [16]): 6 (11.5) n (%) | Best response SD (advanced solid tumors; [16]): 13 (25.0) n (%) | DCR (95% CI) (advanced solid tumors; [16]): 36.5 (23.6–51.0) % | ORR (95% CI) (advanced solid tumors; [16]): 11.5 (4.4–23.4) % | Best response CR (advanced solid tumors; [17]): 0 (0.0) n (%) | Best response NE (advanced solid tumors; [17]): 3 (10.0) n (%) | Best response PD (advanced solid tumors; [17]): 19 (63.3) n (%) | Best response PR (advanced solid tumors; [17]): 0 (0.0) n (%) | Best response SD (advanced solid tumors; [17]): 8 (26.7) n (%) | DCR (95% CI) (advanced solid tumors; [17]): 26.7 (12.3–45.9) % | ORR (95% CI) (advanced solid tumors; [17]): 0 (0–11.6) % | Patients with confirmed PR (advanced solid tumors; patients with GC evaluated for response): 4/21 | AUC(0-inf) (clinical; 8 mg, Day 1, TIW 8 mg, n = 1): 390 ng·h/mL | AUC(0-inf) (clinical; 8 mg, Week 3, TIW 8 mg, n = 1): 663 ng·h/mL | AUC(0-t) (clinical; 8 mg, Day 1, TIW 8 mg, n = 1): 387 ng·h/mL | AUC(0-t) (clinical; 8 mg, Week 3, TIW 8 mg, n = 1): 653 ng·h/mL | Cmax (clinical; 8 mg, Day 1, TIW 8 mg, n = 1): 135 ng/mL | Tmax (clinical; 8 mg, Day 1, TIW 8 mg, n = 1, median): 1.87 h | half-life (clinical; 8 mg, t1/2, Day 1, TIW 8 mg, n = 1): 1.58 h | AUC(0-inf) (clinical; [18]): 1020 ng·h/mL | AUC(0-inf) (clinical; 16 mg, Day 1, TIW 16 mg, n = 1): 1190 ng·h/mL | AUC(0-inf) (clinical; [19]): 1580 ng·h/mL | AUC(0-t) (clinical; [18]): 1010 ng·h/mL | AUC(0-t) (clinical; 16 mg, Day 1, TIW 16 mg, n = 1): 1140 ng·h/mL | AUC(0-t) (clinical; [19]): 1580 ng·h/mL | Cmax (clinical; [18]): 235 ng/mL | Cmax (clinical; 16 mg, Day 1, TIW 16 mg, n = 1): 189 ng/mL | Cmax (clinical; [19]): 182 ng/mL | Tmax (clinical; 16 mg, Day 1, QD 16 mg, n = 3, median (minimum, maximum)): 0.95 h | Tmax (clinical; 16 mg, Day 1, TIW 16 mg, n = 1, median): 1.95 h | Tmax (clinical; 16 mg, Week 3, TIW 16 mg, n = 1, median): 2.9 h | half-life (clinical; 16 mg, t1/2, Day 1, QD 16 mg, n = 3, mean (standard deviation)): 2.68 h | half-life (clinical; 16 mg, t1/2, Day 1, TIW 16 mg, n = 1): 5.72 h | AUC(0-inf) (clinical; [20]): 983 ng·h/mL | AUC(0-inf) (clinical; [21]): 729 ng·h/mL | AUC(0-t) (clinical; [20]): 977 ng·h/mL | AUC(0-t) (clinical; [21]): 727 ng·h/mL | Cmax (clinical; [20]): 253 ng/mL | half-life (clinical; 20 mg, t1/2, Day 1, QD 20 mg, n = 7, mean (standard deviation)): 2.18 h | half-life (clinical; 20 mg, t1/2, Week 3 (day 21), QD 20 mg, n = 2, mean): 3.05 h | AUC(0-inf) (clinical; 24 mg, Day 1, TIW 24 mg, n = 1): 623 ng·h/mL | AUC(0-inf) (clinical; [22]): 502 ng·h/mL | AUC(0-t) (clinical; 24 mg, Day 1, TIW 24 mg, n = 1): 621 ng·h/mL | AUC(0-t) (clinical; [22]): 499 ng·h/mL | Cmax (clinical; 24 mg, Day 1, TIW 24 mg, n = 1): 204 ng/mL | Cmax (clinical; [22]): 146 ng/mL | Tmax (clinical; 24 mg, Day 1, TIW 24 mg, n = 1, median): 1.95 h | Tmax (clinical; 24 mg, Week 3, TIW 24 mg, n = 1, median): 3.98 h | half-life (clinical; 24 mg, t1/2, Day 1, TIW 24 mg, n = 1): 1.55 h | half-life (clinical; 24 mg, t1/2, Week 3, TIW 24 mg, n = 1): 1.47 h | AUC(0-inf) (clinical; 36 mg, Week 3, TIW 36 mg, n = 3, mean): 2160 ng·h/mL | half-life (clinical; 36 mg, t1/2, Week 3, TIW 36 mg, n = 2, mean): 3.64 h | Susceptibility to resistance development [2]: low susceptibility to resistance development | Dose proportionality of Cmax and AUC [3]: statistically dose‐proportional between 4 mg and 24 mg QD

Source: PMC9899610 (Cancer Science, 2022)
